These results are taken from patent US5770688A, “Method and composition for the treatment of mammalian HIV infection” (GSF-Forschungszentrum fur Umwelt und Gesundheit GmbH, priority 1989, dated 1998).

One test relates to HIV. The test can be described thus: relative infectious nature of culture supernatant, indirect immunoperoxidase staining of LC5 cells. It counts as cell-based. The protocol:
Referring more particularly to FIGS. 1-4, melittin (Seq. ID NO:1) and its specified analogues were tested for their effect on HIV-infected T-lymphoma cells. In this regard the following cell lines were employed in the testing: KE37-1 (uninfected) and KE37-1/111S (infected with HTLV-111β). These infected cells were incubated for a period of seven days under test conditions at a temperature of 37° C. and in the presence of 5% CO2. A culture medium of RPMI 1640 (GIBCO) was employed and was further supplemented with 10% fetal calf serum which contained approximately 100 units of penicillin, 100μ of streptomycin, and approximately 0.25μ fungizone (Amphotericin B) per milliliter. […] A first test was conducted for purposes of determining the relative cell concentration as a function of the number of HIV infected cells present by employing an MTT test. The MTT test was carried out in microtiter plates according to T. Mosmann, "Rapid Colorimetric Assay for Cellular Growth and Survival: Application to Proliferation and Cytotoxicity Assays," Journal of Immunological Methods, v. 65 (1983), pp. 55-63. The MTT test was slightly modified: 10 μl of an MTT solution (5 mg/ml MTT dissolved in PBS, sterilized by filtration; MTT is 3-(4,5-Dimethylthiazole-2-yl)-2,5-diphenyltetrazolimbromide) were added to every well. […] The optical density (OD) of the solution was determined at=600 nm. […]

In the next test the test system is Rauscher leukemia virus. Briefly: Example 2: Rauscher leukemia virus (RLV) model. It counts as in vivo, Balb/c mice. An excerpt: As noted earlier, the Rauscher leukemia virus (RLV) model has been used successfully to test a number of compounds like nucleoside analogues, that is, AZT, and which has been utilized, heretofore, to inhibit HIV replication. This is discussed in further detail in the article authored by R. M. Ruprechet, et. al. and which is entitled Development of Antiviral Treatment Strategies in Murin Models, RES. Human Retroviruses, 8,997-1011 (1992). Those skilled in the art will recognized that RLV belongs to the Onkoviruses, which is a subfamily of the retrovirus family, and not to the Lentiviruses family, such as is the case with HIV. Therefore, the RLV model provides a suitable basis upon which one may test substances which interfere with the replication steps which are common, or similar, among related retroviruses. As noted earlier, inasmuch as the melittin (Seq. ID NO:1) appears to inhibit HIV transcription in vitro, then it appears that RLV is a suitable model to test the effect of melittin on in vivo replication inhibition.
The source of virus for the present example was secured from the leukemic spleens of RLV infected Balb/c mice. The virus titer of the pool of leukemic spleens was determined by titration. This titration method is discussed in the article authored by Schmidt et al., "Endogenous Murine Leukemia Viruses: frequency of radiation-activation and novel pathogenic effects of viral isolates." Leukemia Research 12, 393-403, (1988). The spleens were secured from 8 to 10 week old inbreed female Balb/c mice, and further from in mouse embryo fibroblasts. As noted earlier, virus replication in mice normally has been determined by the development of leukemia in the spleen. Additionally, the determination of in vitro virus replication has been measured heretofore by the number of virus protein producing cells which are stained with anti-RLV antibodies in an immuno-peroxidase staining test (IPF). Aliquots of the virus solutions were stored in liquid nitrogen and were again titrated in the fashion as noted above.
Stock virus solutions were diluted to provide solutions having a virus concentration of approximately 7×10^6 infectious units per milliliter. Following preparation of the solutions, 0.5 ml of these viral solutions were injected intraperitoneally (ip) into Balb/c mice that were 8 to 10 weeks old. […] As will be recognized by a study of FIG. 43 and FIG. 48, and following infection with the RLV, nearly 100% of the mice developed leukemia (splenomegaly) within approximately three weeks. […] The mean spleen weight development became less prominent. This is best seen by reference to FIG. 48 and in particular groups 8, 9 and 10.

Setting [1] is: all treated groups, regardless of schedule.
Setting [2] is: group 1, after infection, intervals of 4 days.
The mark [3] stands for this setting: group 2, after infection, intervals of 2 days.
[4] abbreviates: group 3, after infection, daily.

As to “Gly-Ile-Gly-Ala-Val-Leu-Lys-Val-Leu-Thr-Thr-Gly-Leu-Pro-Ala-Leu-Ile-Ser-Trp-Ile-Lys-Arg-Lys-Arg-Gln-Gln-Amide [melittin]”, the “ability of the cells to infect (INF%)” value in the test on HIV (2.5 μg per ml, FIG. 2) is listed as “revert substantially back to zero”. Besides, the supernatant infectivity result with HIV (single treatment at cultivation start, subtoxic concentrations, seven days post treatment) was “supernatant infectivity was reduced”. Further, in the test with Rauscher leukemia virus (setting [1]), the “animals that developed leukemia” value was 70%. Besides, the mean spleen weight in the test with Rauscher leukemia virus (setting [1]) was found to be 1.2 grams; with Rauscher leukemia virus (setting [2]) it was 1.1 grams; with Rauscher leukemia virus (setting [3]), 1.3 grams; in the test with Rauscher leukemia virus (group 2, pre-treated, 5 injections, FIG. 45), 1.5 grams; with Rauscher leukemia virus (setting [4]) it was 1.1 grams; in the test with Rauscher leukemia virus (group 3, pre-treated, 4 injections, FIG. 45) it was 1.5 grams. Further, the mean spleen weight in the test with Rauscher leukemia virus (group 4, pre-treated, 3 injections, FIG. 45) is listed as 1.3 grams; in the test on Rauscher leukemia virus (group 5, once before infection and five times later in four day intervals) it was “approximately 1.3 grams”; in the test with Rauscher leukemia virus (group 6, single injection 12 hours before infection), 1.1 grams; with Rauscher leukemia virus (group 7, single injection 24 hours before infection) it was 0.7 grams; in the test with Rauscher leukemia virus (group 8, day 21) it was 1.2 grams; in the test with Rauscher leukemia virus (group 8, single injection 6 hours before infection), 0.9 grams. For the same substance, in the test with Rauscher leukemia virus (days 5 and 10, five administrations before and six after infection), the “spleen weights, treated vs untreated, in words” value is given as “quite similar with only a slight difference appearing on day 10”. For the same substance, the “leukemic animals, in words” value in the test with Rauscher leukemia virus (days 5 and 15 (so in the source)) is “no leukemic animals could be found on days 5 and 15”. Also, the leukemic animals in the test on Rauscher leukemia virus (setting [2]) is given as 4 out of 6; in the test on Rauscher leukemia virus (setting [3]), 5 out of 6; in the test with Rauscher leukemia virus (setting [4]) it was 5 out of 6. In addition, the “number of leukemic animals” value in the test with Rauscher leukemia virus (group 6, day 15, ten analyzed) was “one”. Besides, in the test with Rauscher leukemia virus (group 8, day 21), the “animals that develop leukemia” value is 7 out of 10. The “development of leukemia, in words” value in the test with Rauscher leukemia virus (pre-treated animals, FIG. 45) is on record as “nearly all of the pre-treated animals also developed leukemia”.
